In article PMC10026625 (RSC Advances, 2023):

Tested on: SARS-CoV-2 ancestral Wuhan strain (OMC-510) / VeroE6/TMPRSS2 cells
Conditions: plaque reduction assay

CC[C@H](C)[C@H](NC(C)=O)C(=O)N[C@@H](CO)C(=O)NCC(=O)N[C@H](C(=O)N[C@@H](CC(N)=O)C(=O)N[C@@H](C)C(=O)N[C@@H](CO)C(=O)N[C@H](C(=O)N[C@H](C(=O)N[C@@H](CC(N)=O)C(=O)N[C@H](C(=O)N[C@@H](CCC(N)=O)C(=O)N[C@@H](CCC(=O)O)C(=O)N[C@@H](CCC(=O)O)C(=O)N[C@H](C(=O)N[C@@H](CCCCN)C(=O)N[C@@H](CCCNC(=N)N)C(=O)N[C@@H](CC(C)C)C(=O)N[C@@H](CC(N)=O)C(=O)N[C@@H](CCC(=O)O)C(=O)N[C@H](C(=O)N[C@@H](C)C(=O)N[C@@H](CCCCN)C(=O)N[C@@H](CCCCN)C(=O)N[C@@H](CC(C)C)C(=O)N[C@@H](CC(N)=O)C(=O)N[C@@H](CCC(=O)O)C(=O)N[C@@H](CO)C(=O)N[C@@H](CC(C)C)C(=O)N[C@H](C(=O)N[C@@H](CC(=O)O)C(=O)N[C@@H](CC(C)C)C(=O)N[C@@H](CCC(N)=O)C(=O)N[C@@H](CCC(=O)O)C(N)=O)[C@@H](C)CC)C(C)C)[C@@H](C)CC)[C@@H](C)CC)C(C)C)C(C)C)[C@@H](C)CC [Peptide 3a]
times higher antiviral activity than peptide 1a: ~4 times | times higher antiviral activity than peptide 2a: approximately 10 times
